Test results as given in patent US20040253665A1, “Novel peptide-producing enzyme, microbe producing the enzyme and method for dipeptide synthesis using them” (AJINOMOTO CO., INC., priority 2002, published 2004).
Like-named read-outs stand apart in the source and are kept apart here. Non-standard residues stand in square brackets, D forms with d. Residues, ends and D or L forms follow the SMILES beside them. *: point of attachment. 2Nal = N[C@@H](Cc1ccc2ccccc2c1)C(=O)O; Cha = N[C@@H](CC1CCCCC1)C(=O)O; Boc = CC(C)(C)OC(=O)*

Columns and labels:
[1] = tested on: Empedobacter brevis strain FERM BP-8113 microbial cells; assay: Production of peptide using microbial cells of Empedobacter brevis; type: cell-based; conditions: microbial cell suspension 100 g/L mixed 1:1 with 200 mM carboxy component and 400 mM amino acid, pH 9.0, 10 mM EDTA, 18° C., 2 hours
Experimental: A 50 mL medium (pH 6.2) containing 5 grams (hereinafter, “g”) of glucose, 5 g of ammonium sulfate, 1 g of monopotassium phosphate, 3 g of dipotassium phosphate, 0.5 g of magnesium sulfate, 10 g of yeast extract and 10 g of peptone in 1 liter (hereinafter, “L”) was transferred to a 500 mL Sakaguchi flask and sterilized at 115° C. for 15 minutes. This medium,was then inoculated with one loopful of the culture broth of Empedobacter brevis strain FERM BP-8113 (Depositary institution: National Institute for Advanced Industrial Science and Technology, International Patent Organism Depositary, Address of depositary institution: Chuo Dai-6, 1-1 Higashi 1-Chome, Tsukuba-shi, Ibaraki-ken, Japan, International deposit transfer date: Jul. 8, 2002) that had been cultured at 30° C. for 16 hours in the same medium, followed by shake culturing at 30° C. for 16 hours and 120 strokes/min.

[2] = tested on: peptide-producing enzyme (Mono S fraction) from Empedobacter brevis strain FERM BP-8113; assay: Enzyme substrate specificity (1)-(10), (13), (14); type: biochemical; conditions: pH 9.0, 25° C., 3 hours
Procedure, shortened: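 Mono S-purified peptide-forming enzyme from Empedobacter brevis FERM BP-8113, given L-amino acid esters (hydrochlorides) or amides as carboxy component with amino acids, C-protected amino acids, methylamine, β-amino acids or peptides as amine component. Dipeptide/oligopeptide product quantified; Tween-80 0.1% added with L-Trp-OMe.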

[3] = tested on: enzyme (SP-Sepharose HP fraction) derived from Sphingobacterium sp. strain FERM BP-8124; type: biochemical; conditions: pH 9.0, 25° C.; for Produced peptide: 0.33 units enzyme, 1.5 hours
Procedure, shortened: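 Purified enzyme (SP-Sepharose HP fraction, 0.33 units) reacted with carboxy components (100 mM, as hydrochlorides) and amine components (150 mM) in 100 mM borate buffer pH 9.0 with 10 mM EDTA. Reactions ran 1.5 h at 25 °C to assess peptide and oligopeptide formation.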

[4] = tested on: peptide-producing enzyme (Mono S fraction) from Empedobacter brevis strain FERM BP-8113; assay: Production of L-alanyl-L-glutamine from L-alanine methyl ester and L-glutamine with enzyme fraction; type: biochemical; conditions: for L-Ala-L-Gln: L-alanine methyl ester hydrochloride 100 mM, 18° C., 2 hours
Experimental: On the other hand, there was hardly any production of L-Ala-L-Gln observed in an enzyme-non-added lot, and the […] was only about 0.07 mM after reacting for 120 minutes.

[5] = tested on: peptide-producing enzyme (Mono S fraction) from Empedobacter brevis strain FERM BP-8113; assay: Enzyme inhibitors: effect on production of L-alanyl-L-glutamine; type: biochemical; conditions: for Inhibition of the enzyme (in words): serine enzyme inhibitors at 10 mM
[6] = tested on: peptide-producing enzyme (Mono S fraction) from Empedobacter brevis strain FERM BP-8113; assay: Enzyme substrate specificity (1)-(10), (13), (14); type: biochemical; parameters: key: +: those for which production was confirmed but which were unable to be quantified due to the absence of a standard; a trace amount
Text: Ester specificity was examined in the case of using L-amino acid ester for the carboxy component. […] The amounts of L-Ala-L-Gln produced in this reaction are shown in Table 4 (HCl represents hydrochloride in Table 4). Peptide production was examined in the case of using L-alanine methyl ester for the carboxy component and using various L-amino acids for the amine component. […] (The “+” mark indicates those peptides for which production was confirmed but which were unable to be quantified due to the absence of a standard, while “tr” indicates a trace amount.) Peptide production was examined in the case of using various types of L-amino acid methyl esters for the carboxy component and using L-glutamine for the amine component. […] Peptide production was examined in the case of using various L-amino acid methyl esters for the carboxy component and various L-amino acids for the amine component. […] (The “tr” indicates a trace amount.) Furthermore, Tween-80 was added to the reaction system to a final concentration of 0.1% in the case of using L-Trp-OMe. (The “+” mark indicates those peptides for which production was confirmed but which were unable to be quantified due to the absence of a standard.) […] (The “tr” indicates a trace amount.) Peptide production was examined using various L-amino acid amides for the carboxy component, and various L-amino acids for the amine component. […] Peptide production was examined in the case of using various L-alanine methyl esters for the carboxy component and C-protected L-amino acids for the amine component. […] Peptide production was examined in the case of using various amino acid methyl esters for the carboxy component and methylamine for the amine component. […] Peptide production was examined in the case of using β-amino acid ester for the carboxy component or β-amino acid for the amine component. […] (The “tr” indicates a trace amount.) Oligopeptide production was examined in the case of using L-amino acid ester for the carboxy component and peptide for the amine component. […] Substrate specificity was additionally assessed using the same enzyme fraction as that used in Example 5. […] (A “+” mark indicates those for which production was confirmed but which were unable to be quantified due to the absence of a standard, while “tr” indicates a trace amount). Substrate specificity with respect to oligopeptide production was assessed using the same enzyme fraction as Example 26. […] (A “+” mark indicates those for which production was confirmed but which were unable to be quantified due to the absence of a standard, while “tr” indicates a trace amount). It should be noted that hydrochlorides were used for all of the carboxy components.

[7] = Comparison of ability to catalyze peptide production with known enzymes; type: biochemical; conditions: for L-Ala-L-Gln production rate: 100 mM L-alanine methyl ester, 200 mM L-glutamine, borate buffer pH 9.0, 25° C., enzyme amount as in Table 14; for Ratio of L-Ala-L-Gln production rate per enzyme unit weight: enzyme of present invention = 100.0
Experimental: The peptide formation ability of the present enzyme was compared with that of known enzymes. […] The enzyme uniformly purified in Example 3 was used for the source of the enzyme of the present invention. The reaction was carried out by adding enzyme to 100 μl of borate buffer (pH 9.0) containing 100 mM L-alanine methyl ester and 200 mM L-glutamine and allowing to react at 25° C. Furthermore, enzyme dissolved in 10 mM acetate buffer (pH 5.0) containing 1 mM EDTA was used for the carboxypeptidase, while enzyme dissolved in 10 mM acetate buffer (pH 5.0) containing 2 mM EDTA, 0.1 M KCl and 5 mM dithiothreitol was used for the thiol endopeptidase.

[8] = 100 mM L-alanine methyl ester hydrochloride, L-amino acid 150 mM
[9] = inhibitor at 10 mM, pH 9.0, 25° C., 5 minutes, 100 = absence of enzyme inhibitor

## C[C@H](N)C(=O)N[C@@H](CCC(N)=O)C(=O)O [L-Ala-L-Gln, L-alanyl-L-glutamine] (H-Ala-Gln-OH)
[1]
  Produced peptide: 68.0 mM
[2]; [8]
  Produced peptide: 79.3 mM
[2]; L-amino acid amide hydrochloride 100 mM as carboxy component, L-amino acid 150 mM
  Produced peptide: 7.6 mM
[2]; L-amino acid methyl ester hydrochloride 100 mM, 150 mM L-glutamine
  Produced peptide: 74.6 mM
[3]; 10 μl SP-Sepharose HP fraction (about 27 U/ml) in 90 μl with 111 mM L-alanine methyl ester hydrochloride, 222 mM L-glutamine, 120 minutes, enzyme-added lot
  L-alanyl-L-glutamine produced: 73 mM
[3]; Table 15-4, amides or methylamine as components, 100 mM / 150 mM
  Produced peptide: 0.3 mM
[4]; 3 μl enzyme fraction, 100 mM L-alanine methyl ester hydrochloride, 200 mM L-glutamine, pH 9.0, 18° C., enzyme-added lot (FIG. 3)
  L-alanyl-L-glutamine produced: 83 mM
[4]; L-glutamine 100 mM
  L-Ala-L-Gln: 68.2 mM
[4]; L-glutamine 110 mM
  L-Ala-L-Gln: 72.1 mM
[4]; L-glutamine 120 mM
  L-Ala-L-Gln: 73.3 mM
[4]; L-glutamine 130 mM
  L-Ala-L-Gln: 75.1 mM
[4]; L-glutamine 150 mM
  L-Ala-L-Gln: 75.5 mM
[4]; L-glutamine 200 mM
  L-Ala-L-Gln: 82.0 mM

## O=C(O)CI [Monoiodoacetate]
[5]; pH 9
  Relative activity of L-Ala-L-Gln production (%): 101%

## N[C@@H](CC1CCCCC1)C(=O)N[C@@H](Cc1ccccc1)C(=O)O [H-CHA-Phe-OH] (H-[Cha]-Phe-OH)
[6]; carboxy component 40 mM, amine component 40 mM, 0.1 unit enzyme, 25° C., reaction time 3 hr
  Produced peptide (mM): +

## CCN1C(=O)C=CC1=O [N-Ethyl maleimide]
[5]; [9]
  Relative activity of L-Ala-L-Gln production (%): 110%

## N=C(N)Nc1ccc(C(=O)Oc2ccc([N+](=O)[O-])cc2)cc1 [p-Nitrophenyl-p′-guanidino benzoate, p-nitrophenyl-p′-guanidinobenzoate]
[5]; [9]
  Relative activity of L-Ala-L-Gln production (%): 0.1%
[5]
  Inhibition of the enzyme (in words): inhibited

## C[C@H](N)C(=O)N[C@@H](Cc1ccc2ccccc2c1)C(=O)O [H-Ala-2-Nal-OH] (H-Ala-[2Nal]-OH)
[6]; carboxy component 20 mM, amine component 20 mM, 0.1 unit enzyme, 25° C., reaction time 3 hr
  Produced peptide (mM): +

## O=C(O)CN(CCN(CC(=O)O)CC(=O)O)CC(=O)O [EDTA, ethylenediaminetetraacetic acid]
[5]; [9]
  Relative activity of L-Ala-L-Gln production (%): 96%

## L-Ala-Gly-L-Phe
[6]; oligopeptide production, amount of enzyme 0.1 units, pH 9.0, 25° C., 3 hours
  Produced peptide (mM): +

## CC(C)(C)OC(=O)NCCCC[C@H](N)C(=O)N[C@@H](CCC(N)=O)C(=O)O [H-Lys(Boc)-Gln-OH] (H-Lys(Boc)-Gln-OH)
[6]; carboxy component 100 mM, amine component 150 mM, 0.1 unit enzyme, 25° C., reaction time 2 hr
  Produced peptide (mM): +

## L-Ala-L-Ala-L-Gln
[2]; L-amino acid ester 100 mM, amino acid or peptide amine component 150 mM
  Produced peptide: 15.2 mM
[4]; 3 μl enzyme fraction, 100 mM L-alanine methyl ester hydrochloride, 200 mM L-glutamine, pH 9.0, 18° C., enzyme-added lot
  concentration of by-product: 1.3 mM

## Ficin
[7]
  L-Ala-L-Gln production rate: 0.0096 mM/min
  Ratio of L-Ala-L-Gln production rate per enzyme unit weight: 0.0017

## Bromelain
[7]
  L-Ala-L-Gln production rate: 0.0062 mM/min
  Ratio of L-Ala-L-Gln production rate per enzyme unit weight: 0.0010

## O=S(=O)(F)Cc1ccccc1 [Phenylmethylsulfonyl fluoride]
[5]; [9]
  Relative activity of L-Ala-L-Gln production (%): 115%
[5]
  Inhibition of the enzyme (in words): not inhibited

## Chymopapain: thiol endopeptidase described in EP 359399B1, purified enzyme manufactured by Sigma
[7]
  L-Ala-L-Gln production rate: 0.0100 mM/min
  Ratio of L-Ala-L-Gln production rate per enzyme unit weight: 0.0013

## c1cnc2c(c1)ccc1cccnc12 [o-Phenanthroline]
[5]; [9]
  Relative activity of L-Ala-L-Gln production (%): 96%

## C[C@H](N)C(=O)N[C@@H](Cc1ccccc1)C(=O)O [L-Ala-L-Phe]
[1]
  Produced peptide: 62.4 mM
[2]; [8]
  Produced peptide: 74.4 mM
[3]; Table 15-1, carboxy component 100 mM, amine component 150 mM
  Produced peptide: 69.5 mM

B1: Papain: thiol endopeptidase described in EP 359399B1, purified enzyme manufactured by Sigma (protein, UniProt P00784 134-345, looked up)
Papain: IPEYVDWRQKGAVTPVKNQGSCGSCWAFSAVVTIEGIIKIRTGNLNEYSEQELLDCDRRSYGCNGGYPWSALQLVAQYGIHYRNTYPYEGVQRYCRSREKGPYAAKTDGVRQVQPYNEGALLYSIANQPVSVVLEAAGKDFQLYRGGIFVGPCGNKVDHAVAAVGYGPNYILIKNSWGTGWGENGYIRIKRGTGNSYGVCGLYTSSFYPVKN
[7]
  L-Ala-L-Gln production rate: 0.0106 mM/min
  Ratio of L-Ala-L-Gln production rate per enzyme unit weight: 0.0021

B2: Carboxypeptidase Y: known enzyme described in EP 278787A1, purified enzyme manufactured by Sigma (protein, UniProt P00729 112-532, looked up)
Carboxypeptidase Y: KIKDPKILGIDPNVTQYTGYLDVEDEDKHFFFWTFESRNDPAKDPVILWLNGGPGCSSLTGLFFELGPSSIGPDLKPIGNPYSWNSNATVIFLDQPVNVGFSYSGSSGVSNTVAAGKDVYNFLELFFDQFPEYVNKGQDFHIAGESYAGHYIPVFASEILSHKDRNFNLTSVLIGNGLTDPLTQYNYYEPMACGEGGEPSVLPSEECSAMEDSLERCLGLIESCYDSQSVWSCVPATIYCNNAQLAPYQRTGRNVYDIRKDCEGGNLCYPTLQDIDDYLNQDYVKEAVGAEVDHYESCNFDINRNFLFAGDWMKPYHTAVTDLLNQDLPILVYAGDKDFICNWLGNKAWTDVLPWKYDEEFASQKVRNWTASITDEVAGEVKSYKHFTYLRVFNGGHMVPFDVPENALSMVNEWIHGGFSL
[7]
  L-Ala-L-Gln production rate: 0.0257 mM/min
  Ratio of L-Ala-L-Gln production rate per enzyme unit weight: 0.0191
